According to PubChem BioAssay AID1963963 (Molecular Pharmacology Branch, DTP, NCI, 2024):

Tested on: 958667-338-R-J2-PDC tumor spheroids viability
Assay: Anticancer human tumor 958667-338-R-J2-PDC patient-derived colon adenocarcinoma cell line growth inhibition [PI3K]
Conditions: spheroids with HUVEC and MSC; for IC50: curve of first compound; for viability, T/C: stronger effect = lower value
Text: Combinatorial screen of targeted agents with the PI3K inhibitors inavolisib, alpelisib, duvelisib, and copanlisib in multi-cell type tumor spheroids
A high-throughput screen of multi-cell type tumor spheroids was designed to identify active combinations of targeted small molecules and PI3K pathway inhibitors. Complex spheroids include a stromal component modeled by human endothelial cells (HUVEC) and fibroblasts modeled by human mesenchymal stem cells (MSCs). The concentration ranges selected for each drug and investigational agent were based upon clinically achievable concentrations if the clinical Cmax of the agent was known.
Compounds. The drugs and investigational agents: inavolisib (NSC800729), alpelisib (NSC765974), duvelisib (NSC772469), copanlisib (NSC816437), ipatasertib (NSC767898), afuresertib (NSC778305), talazoparib (NSC767125), sapanisertib (NSC764658), selumetinib (NSC741078), tovorafenib (DAY101, NSC766906), vemurafenib (NSC761431), ravoxertinib (NSC781343), sotorasib (NSC818433), MRTX1133 (NSC 836407), abemaciclib (NSC 768073), palbociclib (NSC758247), venetoclax (NSC 766270), SY5609 (NSC837396), enzalutamide (NSC755605), and darolutamide (NSC825331), were obtained from the National Cancer Institute (NCI) Developmental Therapeutics Program Chemical Repository. The FDA-approved anticancer drug set is available from the NCI Developmental Therapeutics Program. […] The stock solutions were prepared in dimethyl sulfoxide (DMSO, Sigma-Aldrich, St. Louis, MO, cat. D2650) at 800-fold the tested concentration and stored at -70 degrees C prior to their use. All drugs and investigational agents were tested over a range starting from a high concentration at or near the clinical Cmax and decreasing in half-log increments. If the clinical Cmax for an agent had not been determined, the highest concentration tested was 10 microM.
Cell Culture. All cells were maintained in an incubator at 37 degrees C and 5% CO2 with 95% humidity. The PDC lines were cultured according to standard operating procedures established by the NCI PDMR (https://pdmr.cancer.gov/sops/default.htm). All PDCs were thawed and cultured in Matrigel-coated flasks prepared with a working solution of 1X Ham's F-12 nutrient mix, without supplementation (Invitrogen, Waltham, MA, cat. 11765054), 100 U/mL penicillin-streptomycin (Invitrogen, cat. 15140122), and 2.5% Matrigel (Corning Inc., Corning, NY, cat. 354248) for the first three passages. The 354836-022-R-J1-PDC, 475296-252-R-J1-PDC, and 997726-040-R-J2-PDC lines were cultured in 6A media, which includes advanced DMEM/F-12 (Thermo Fisher Scientific, cat. 12634028), 10 mM HEPES (Thermo Fisher Scientific, cat. 15630080), 1X GlutaMAX supplement (Thermo Fisher Scientific, cat. 35050061), 0.1 mg/mL primocin (InvivoGen, San Diego, CA, cat. ant-pm-2), 10% defined fetal bovine serum, heat inactivated (HyClone Laboratories Inc., Logan, UT, cat. SH30070.03HI), 50% L-WRN conditioned media (ATCC, cat. CRL-3276), 1.25 mM N-Acetyl-L-cysteine (Sigma-Aldrich, cat. A9165), 10 mM nicotinamide (Sigma-Aldrich, cat. N0636), 1X B-27 supplement (Thermo Fisher Scientific, cat. 17504044), 1X N-2 supplement (Thermo Fisher Scientific, cat. 17502048), and 10 microM Y-27632 dihydrochloride (Tocris Bioscience, Bristol, United Kingdom, cat. 1254). The 624824-186-R-J2-PDC line was cultured in 6C/Colon 1B media, which includes all 6A media components plus 50 ng/mL human EGF recombinant protein (Thermo Fisher Scientific, cat. PHG0311). […]
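Further: spheroids exposed to compounds for seven days before readout.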

Cn1cnc2c(F)c(Nc3ccc(Br)cc3Cl)c(C(=O)NOCCO)cc21 + COc1c(OCCCN2CCOCC2)ccc2c3n(c(=NC(=O)c4cnc(N)nc4)nc12)CCN3
IC50 (second compound 0.00316 µM): 255 nM
IC50 (second compound 0.01 µM): 134 nM
IC50 (second compound 0.0316 µM): 38 nM
IC50 (second compound 0.1 µM): 20.6 nM
IC50 (second compound 0.316 µM): < 9.49 nM
IC50 (second compound 1 µM): < 9.49 nM
viability, T/C (second compound 0.00316 µM, first compound 0.00949 µM): 81.6%
viability, T/C (second compound 0.00316 µM, first compound 0.03 µM): 81.9%
viability, T/C (second compound 0.00316 µM, first compound 0.0949 µM): 75.2%
viability, T/C (second compound 0.00316 µM, first compound 0.3 µM): 44.6%
viability, T/C (second compound 0.00316 µM, first compound 0.949 µM): 26.7%
viability, T/C (second compound 0.00316 µM, first compound 3 µM): 17.3%
viability, T/C (second compound 0.01 µM, first compound 0.00949 µM): 87.8%
viability, T/C (second compound 0.01 µM, first compound 0.03 µM): 65.3%
viability, T/C (second compound 0.01 µM, first compound 0.0949 µM): 62.1%
viability, T/C (second compound 0.01 µM, first compound 0.3 µM): 34.7%
viability, T/C (second compound 0.01 µM, first compound 0.949 µM): 24.9%
viability, T/C (second compound 0.01 µM, first compound 3 µM): 11.6%
viability, T/C (second compound 0.0316 µM, first compound 0.00949 µM): 71.6%
viability, T/C (second compound 0.0316 µM, first compound 0.03 µM): 46.2%
viability, T/C (second compound 0.0316 µM, first compound 0.0949 µM): 40.4%
viability, T/C (second compound 0.0316 µM, first compound 0.3 µM): 28%
viability, T/C (second compound 0.0316 µM, first compound 0.949 µM): 17.4%
viability, T/C (second compound 0.0316 µM, first compound 3 µM): 6.46%
viability, T/C (second compound 0.1 µM, first compound 0.00949 µM): 67.8%
viability, T/C (second compound 0.1 µM, first compound 0.03 µM): 40.9%
viability, T/C (second compound 0.1 µM, first compound 0.0949 µM): 23.8%
viability, T/C (second compound 0.1 µM, first compound 0.3 µM): 16.4%
viability, T/C (second compound 0.1 µM, first compound 0.949 µM): 8.73%
viability, T/C (second compound 0.1 µM, first compound 3 µM): 2.61%
viability, T/C (second compound 0.316 µM, first compound 0.00949 µM): 34.6%
viability, T/C (second compound 0.316 µM, first compound 0.03 µM): 25.5%
viability, T/C (second compound 0.316 µM, first compound 0.0949 µM): 13.7%
viability, T/C (second compound 0.316 µM, first compound 0.3 µM): 6.91%
viability, T/C (second compound 0.316 µM, first compound 0.949 µM): 3.48%
viability, T/C (second compound 0.316 µM, first compound 3 µM): 1.27%
viability, T/C (second compound 1 µM, first compound 0.00949 µM): 13.5%
viability, T/C (second compound 1 µM, first compound 0.03 µM): 10.8%
viability, T/C (second compound 1 µM, first compound 0.0949 µM): 5.1%
viability, T/C (second compound 1 µM, first compound 0.3 µM): 3.51%
viability, T/C (second compound 1 µM, first compound 0.949 µM): 2.89%
viability, T/C (second compound 1 µM, first compound 3 µM): 1%
